Assay results reported in ChEMBL document CHEMBL2216752, “Carnitine palmitoyltransferase (CPT) modulators: a medicinal chemistry perspective on 35 years of research” (J Med Chem, 2011).
pIC50: −log10 of the molar value.

Columns and labels:
[1] = target: T1, Carnitine O-palmitoyltransferase 1, liver isoform (Homo sapiens, UniProt P50416); test: Inhibition of human CPT1A
T1 sequence (P50416 whole entry): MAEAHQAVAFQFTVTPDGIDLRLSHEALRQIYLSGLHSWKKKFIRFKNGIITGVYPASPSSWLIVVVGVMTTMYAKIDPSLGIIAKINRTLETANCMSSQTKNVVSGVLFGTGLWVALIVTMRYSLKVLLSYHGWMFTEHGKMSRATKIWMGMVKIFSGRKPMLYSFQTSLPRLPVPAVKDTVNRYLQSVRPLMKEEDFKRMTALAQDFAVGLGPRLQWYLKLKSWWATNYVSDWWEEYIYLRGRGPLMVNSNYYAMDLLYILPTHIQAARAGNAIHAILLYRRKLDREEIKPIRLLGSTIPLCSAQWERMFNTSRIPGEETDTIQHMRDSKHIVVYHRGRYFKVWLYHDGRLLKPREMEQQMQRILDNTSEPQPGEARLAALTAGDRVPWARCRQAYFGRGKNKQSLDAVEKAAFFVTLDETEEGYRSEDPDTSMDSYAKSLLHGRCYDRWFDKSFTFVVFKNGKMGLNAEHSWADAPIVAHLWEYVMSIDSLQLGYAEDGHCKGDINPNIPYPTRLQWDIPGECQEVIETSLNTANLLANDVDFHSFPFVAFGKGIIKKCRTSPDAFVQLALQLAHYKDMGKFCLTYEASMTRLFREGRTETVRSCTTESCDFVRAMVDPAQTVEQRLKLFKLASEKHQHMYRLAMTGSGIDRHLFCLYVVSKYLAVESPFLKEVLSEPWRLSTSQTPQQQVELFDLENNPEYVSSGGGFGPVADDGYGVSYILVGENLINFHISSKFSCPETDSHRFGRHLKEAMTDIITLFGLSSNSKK

[2] = target: T2, Carnitine O-palmitoyltransferase 1, muscle isoform (Homo sapiens, UniProt Q92523); test: Inhibition of human CPT1B
T2 sequence (Q92523 whole entry): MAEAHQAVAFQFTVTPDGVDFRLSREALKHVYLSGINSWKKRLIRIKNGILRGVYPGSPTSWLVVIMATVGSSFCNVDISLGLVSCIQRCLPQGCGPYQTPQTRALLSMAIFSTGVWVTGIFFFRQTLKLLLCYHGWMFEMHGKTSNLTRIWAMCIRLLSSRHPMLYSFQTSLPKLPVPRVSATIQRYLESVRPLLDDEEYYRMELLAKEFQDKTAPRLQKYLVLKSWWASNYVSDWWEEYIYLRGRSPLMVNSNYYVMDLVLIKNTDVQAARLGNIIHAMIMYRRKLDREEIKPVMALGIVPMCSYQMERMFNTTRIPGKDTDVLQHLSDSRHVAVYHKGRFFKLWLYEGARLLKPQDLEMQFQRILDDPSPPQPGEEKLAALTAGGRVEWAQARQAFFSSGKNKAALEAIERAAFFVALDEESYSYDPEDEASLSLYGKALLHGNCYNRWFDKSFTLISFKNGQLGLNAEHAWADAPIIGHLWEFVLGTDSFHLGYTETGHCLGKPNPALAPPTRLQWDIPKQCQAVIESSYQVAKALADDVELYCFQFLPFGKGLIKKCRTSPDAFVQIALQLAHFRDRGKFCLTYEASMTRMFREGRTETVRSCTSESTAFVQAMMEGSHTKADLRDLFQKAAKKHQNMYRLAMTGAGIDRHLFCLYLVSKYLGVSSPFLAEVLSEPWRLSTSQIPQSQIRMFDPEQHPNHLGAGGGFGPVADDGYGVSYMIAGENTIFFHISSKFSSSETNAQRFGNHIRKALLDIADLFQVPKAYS

[3] = target: T3, Carnitine O-palmitoyltransferase 2, mitochondrial (Rattus norvegicus, UniProt P18886); test: Inhibition of rat CPT2
T3 sequence (P18886 whole entry): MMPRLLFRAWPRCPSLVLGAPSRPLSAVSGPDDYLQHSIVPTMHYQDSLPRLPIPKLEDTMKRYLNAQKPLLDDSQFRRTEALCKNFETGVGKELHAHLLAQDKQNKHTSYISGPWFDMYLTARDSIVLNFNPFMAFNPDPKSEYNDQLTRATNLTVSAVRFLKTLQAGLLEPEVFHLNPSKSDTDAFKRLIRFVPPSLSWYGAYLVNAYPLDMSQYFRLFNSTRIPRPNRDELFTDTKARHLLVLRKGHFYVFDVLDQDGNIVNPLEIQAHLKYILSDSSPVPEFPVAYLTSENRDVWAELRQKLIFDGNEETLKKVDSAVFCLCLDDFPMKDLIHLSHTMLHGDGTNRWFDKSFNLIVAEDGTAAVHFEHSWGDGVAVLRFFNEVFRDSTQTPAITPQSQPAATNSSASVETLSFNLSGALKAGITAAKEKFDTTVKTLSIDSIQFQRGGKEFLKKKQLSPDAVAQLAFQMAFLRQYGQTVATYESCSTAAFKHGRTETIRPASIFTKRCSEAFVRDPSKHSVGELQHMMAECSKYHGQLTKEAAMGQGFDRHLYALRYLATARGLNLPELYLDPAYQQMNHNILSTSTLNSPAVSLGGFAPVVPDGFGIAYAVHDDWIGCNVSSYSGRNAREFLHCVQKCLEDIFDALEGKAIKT

[4] = target: T4, Carnitine O-palmitoyltransferase 2, mitochondrial (Homo sapiens, UniProt P23786); test: Inhibition of human CPT2
T4 sequence (P23786 whole entry): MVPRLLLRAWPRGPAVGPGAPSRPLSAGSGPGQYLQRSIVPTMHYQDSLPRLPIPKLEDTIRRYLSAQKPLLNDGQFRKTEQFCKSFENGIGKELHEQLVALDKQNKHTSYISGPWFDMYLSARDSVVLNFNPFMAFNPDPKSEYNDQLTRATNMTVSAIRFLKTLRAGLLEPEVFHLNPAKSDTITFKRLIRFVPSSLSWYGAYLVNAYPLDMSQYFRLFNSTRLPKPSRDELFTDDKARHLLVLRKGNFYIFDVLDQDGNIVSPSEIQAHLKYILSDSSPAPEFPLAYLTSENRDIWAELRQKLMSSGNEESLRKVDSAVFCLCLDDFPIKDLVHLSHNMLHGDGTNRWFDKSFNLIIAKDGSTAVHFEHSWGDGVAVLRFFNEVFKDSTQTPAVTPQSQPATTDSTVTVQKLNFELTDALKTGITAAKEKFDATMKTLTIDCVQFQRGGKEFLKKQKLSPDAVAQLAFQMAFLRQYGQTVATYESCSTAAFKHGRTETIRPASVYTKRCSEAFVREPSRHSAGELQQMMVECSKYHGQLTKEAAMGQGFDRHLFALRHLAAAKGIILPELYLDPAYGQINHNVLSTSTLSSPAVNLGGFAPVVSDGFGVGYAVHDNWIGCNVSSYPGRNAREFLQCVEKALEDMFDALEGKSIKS

[5] = Toxicity in po dosed Sprague-Dawley rat assessed as hypoglycemic coma; type: organism-based; conditions: in vivo
Rattus norvegicus [6] = test: Reduction in blood glucose in po dosed Sprague-Dawley rat; type: functional
Rattus norvegicus [7] = test: Reduction in blood glucose in Sprague-Dawley rat at 600 umol/kg, po; type: functional; design: scale not given: the % may be the effect or the level left
[8] = target: T1, Carnitine O-palmitoyltransferase 1, liver isoform; test: Inhibition of human CPT1A expressed in Saccharomyces cerevisiae mitochondria assessed as palmitoylcarnitine by HPLC method
[9] = target: T3, Carnitine O-palmitoyltransferase 2, mitochondrial; test: Inhibition of rat CPT2 using [3H]carnitine by radiometric assay
[10] = target: T5, Carnitine O-palmitoyltransferase 1, liver isoform (Rattus norvegicus, UniProt P32198); test: Inhibition of rat CPT1A using [3H]carnitine by radiometric assay
T5 sequence (P32198 whole entry): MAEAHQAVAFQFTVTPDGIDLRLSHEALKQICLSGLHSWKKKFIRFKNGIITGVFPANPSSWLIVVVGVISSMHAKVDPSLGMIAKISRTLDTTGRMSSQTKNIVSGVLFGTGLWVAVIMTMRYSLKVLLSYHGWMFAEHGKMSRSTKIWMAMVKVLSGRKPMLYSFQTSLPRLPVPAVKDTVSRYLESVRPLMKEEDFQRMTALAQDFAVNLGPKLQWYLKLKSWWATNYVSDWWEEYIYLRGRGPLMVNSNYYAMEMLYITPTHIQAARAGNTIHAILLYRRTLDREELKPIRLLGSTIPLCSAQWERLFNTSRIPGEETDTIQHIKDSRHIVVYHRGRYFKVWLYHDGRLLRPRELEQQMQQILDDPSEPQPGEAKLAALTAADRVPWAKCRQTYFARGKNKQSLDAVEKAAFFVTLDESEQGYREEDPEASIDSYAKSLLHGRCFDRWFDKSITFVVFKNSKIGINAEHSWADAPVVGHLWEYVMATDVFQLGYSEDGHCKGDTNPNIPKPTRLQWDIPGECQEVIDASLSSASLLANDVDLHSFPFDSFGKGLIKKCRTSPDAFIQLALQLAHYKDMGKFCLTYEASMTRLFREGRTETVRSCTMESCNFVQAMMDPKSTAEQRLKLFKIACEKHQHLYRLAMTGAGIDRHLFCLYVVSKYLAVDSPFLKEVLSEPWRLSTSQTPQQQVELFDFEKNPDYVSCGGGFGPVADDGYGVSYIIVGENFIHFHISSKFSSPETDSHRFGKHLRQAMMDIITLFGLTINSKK

[11] = Inhibition of carnitine palmitoyltransferase in rat liver mitochondria assessed as conversion of [14C]palmitic acid to [14C]palmitoylcarnitine by radiometric assay
[12] = Inhibition of carnitine palmitoyltransferase in rat heart mitochondria assessed as conversion of [14C]palmitic acid to [14C]palmitoylcarnitine by radiometric assay
[13] = target: T6, Mitochondrial carnitine/acylcarnitine carrier protein (Homo sapiens, UniProt O43772); test: Inhibition of CACT
T6 sequence (O43772 whole entry): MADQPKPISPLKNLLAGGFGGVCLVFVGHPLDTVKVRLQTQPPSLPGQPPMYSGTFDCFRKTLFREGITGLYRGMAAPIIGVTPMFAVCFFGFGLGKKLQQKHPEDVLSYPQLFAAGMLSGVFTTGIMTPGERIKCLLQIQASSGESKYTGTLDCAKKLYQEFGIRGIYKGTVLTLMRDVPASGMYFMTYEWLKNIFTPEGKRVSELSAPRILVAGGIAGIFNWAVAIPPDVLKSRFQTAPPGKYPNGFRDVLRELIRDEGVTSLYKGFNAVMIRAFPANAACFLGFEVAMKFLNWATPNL

O=C(NCc1cccs1)c1nn(Cc2cccc(C(F)(F)F)c2)c2ccccc12
pIC50 [1]: 7.59
pIC50 [2]: < 4.00
pIC50 [3]: < 4.00

COc1ccc(C)cc1S(=O)(=O)N1CCCc2ccc(C(=O)Nc3ccc(CC(=O)O)cc3)cc21
pIC50 [1]: 6.80
pIC50 [2]: 5.46
pIC50 [3]: 4.78
pIC50 [4]: 5.55

COc1ccc(Cl)cc1S(=O)(=O)N1CCc2ccc(C(=O)Nc3ccc(C(=O)O)cc3)cc21
pIC50 [1]: 7.68
pIC50 [2]: < 4.00
pIC50 [3]: 5.49
pIC50 [4]: 6.13

CCOC(=O)C1(CCCCCc2ccc(Cl)cc2)CO1 (racemic)
LD50 [5]: 275 mg/kg
ED50 (Rattus norvegicus [6]): 6 mg/kg
Activity (Rattus norvegicus [7]): 80%

COc1ccc(-c2noc([C@H]3CCCCN3C(=O)COc3ccccc3)n2)cc1
pIC50 [1]: 7.19
pIC50 [2]: < 4.00
pIC50 [3]: < 4.00

CCCCCc1ccc(S(=O)(=O)NC2(CC(=O)[O-])CCC[N+](C)(C)C2)cc1 (centres undefined)
pIC50 [8]: > 6.00

COc1ccc(Cl)cc1S(=O)(=O)N1CC(C(=O)O)Oc2ccc(C(=O)Nc3cccc(F)c3)cc21 (centres undefined)
pIC50 [2]: 5.47
pIC50 [3]: < 4.00
pIC50 [4]: < 4.00

CCCCCCCCCCCCCCCC1(O)C[N+](C)(C)CC(CC(=O)[O-])O1 (stereo in doubt; (+)-27)
pIC50 [9]: 4.32
pIC50 [10]: 4.41

CCCCCCCCCCCCCCCC1(O)C[N+](C)(C)CC(CC(=O)[O-])O1 (stereo in doubt; (-)-27)
pIC50 [9]: 5.17
pIC50 [10]: 4.81

CCCCCCCCCCCNS(=O)(=O)N[C@H](CC(=O)[O-])C[N+](C)(C)C
pIC50 [11]: 6.10
pIC50 [12]: 5.24

CCCCCCCCCC(=O)O[C@@H](CC(=O)[O-])C[N+](C)(C)C
pIC50 [13]: 5.30

CCCCCCCCCCCCCCCC(=O)O[C@@H](CC(=O)[O-])C[N+](C)(C)C
pIC50 [13]: 4.46
